The values that follow come from PubChem BioAssay (NCI).

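Five compound concentrations were applied to cells in 96-well plates for 48 hours; endpoints were derived by simple linear interpolation of the resulting dose-response curve. The concentration for 50% growth inhibition is given as GI50. TGI: total growth inhibition.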

The subject of the assay is SN12K1 renal. Nature of the assay: NCI anticancer screen, dose series, 48 h.

`C=C1C(=O)OC2C1CC1OC2C(C)CCC/C(C)=C\CCC1(C)O` (stereo not given) showed a TGI of 40.2 µM. With `O.O=[Se](=O)(O)O.[NH-]C1CCCCC1[NH-].[Pt+2]` (stereo not given), the GI50 was greater than 30.4 µM and the TGI is greater than 100 µM.

In the case of `COc1cccc2c1C(=O)c1c(O)c3c(c(O)c1C2=O)C[C@](O)(C(=O)CO)CC3OC1CC(N)C(OC2CCCCO2)C(C)O1` (stereo not given in full), the TGI was determined as 0.879 µM. Consider `CN(c1ccccc1)c1c(-c2ccccc2)c(=O)oc2c1ccc1occc12`, for which the TGI was greater than 100 µM.
